From patent publication US10064889B2, “Mercapto-modified biocompatible macromolecule derivatives with low degree of mercapto-modification and the cross-linked materials and uses thereof” (Bioregen Biomedical (Changzhou) Co., Ltd., priority 2010, dated 2018)

Experiment: Drug release from drug-containing disulfide-bond cross-linked hyaluronic acid hydrogel into phosphate buffer solution
Format: physicochemical
Settings: 37° C., 100 rpm; for Cumulative release percentage of the drug: hydrogel 10 mg/ml hyaluronic acid, degree of mercapto-modification 3.97%
Protocol: In the preparation process of the disulfide-bond cross-linked hyaluronic acid hydrogel of Example 6 (having a concentration of hyaluronic acid of 10 mg/ml and a degree of mercapto-modification of 3.97%), 0.1-10 mg cortical hormones (e.g. Beclomethasone, Beclomethasone dipropionate, Budesonide, Dexamethasone, Prednisolone, and Prednisone) were added respectively to make the cortical hormones uniformly dispersed in the prepared cross-linked hydrogel.
10 ml phosphate buffer solution was added to 0.2 ml of the above drug-containing cross-linked hydrogel placed into a 15 ml plastic centrifugal tube. Then centrifugal tube was placed in a shaker (37° C., 100 rpm), and the ultraviolet absorption of the drugs in the supernatant was measured at regular intervals. The measurement wavelengths were as follows: Beclomethasone 246 nm, Beclomethasone dipropionate 240 nm, Budesonide 248 nm, Dexamethasone 242 nm, Prednisolone 248 nm, and Prednisone 244 nm.

Compound	Release behaviour from the hydrogel (in words)	Cumulative release percentage of the drug (7 days) [%]	Cumulative release percentage of the drug (14 days) [%]	Cumulative release percentage of the drug (21 days) [%]
CCC(=O)OCC(=O)[C@@]1(OC(=O)CC)[C@@H](C)C[C@H]2[C@@H]3CCC4=CC(=O)C=C[C@]4(C)[C@@]3(Cl)[C@@H](O)C[C@@]21C [Beclomethasone dipropionate]	release was rarely detected	<1	<1	<1
C[C@H]1C[C@H]2[C@@H]3CCC4=CC(=O)C=C[C@]4(C)[C@@]3(Cl)[C@@H](O)C[C@]2(C)[C@@]1(O)C(=O)CO [Beclomethasone]		68	87	94
C[C@]12C=CC(=O)C=C1CC[C@@H]1[C@@H]2[C@@H](O)C[C@@]2(C)[C@H]1CC[C@]2(O)C(=O)CO [Prednisolone]	released basically completely in 7 days	95	100	100
C[C@]12C=CC(=O)C=C1CC[C@@H]1[C@@H]2C(=O)C[C@@]2(C)[C@H]1CC[C@]2(O)C(=O)CO [Prednisone]		86	99	100
